Assay results: patent publication US10478464B2, “Compositions and methods of use” (priority 2009, dated 2019)

Experiments:
[1] = tested on: HOP-92 lung cancer cell lines; test: Cell survival, colorimetric MTT assay, HOP-92; assay type: cell-based, human; conditions: 72 hours; for reduced the survival of HOP92 cell lines by: 100 μM
Protocol: 1) Against the lung cancer cell lines: The effect of the racemic mixture of 8-HHA and that of the individual enantiomers, namely S and R enantiomers, were examined on the survival of HOP-92 lung cancer cell lines. The cell viability was examined in the exponential growth phase with 100 μM of 8-HHA for 72 hours using colorimetric MTT assay. In separate assays, HOP-92 cells were treated with different concentrations of the S-enantiomer of 8-HHA ranging from 20-100 μM for 72 hours.

[2] = tested on: PLC/PRF/5 liver cancer cell line; test: Cell survival, colorimetric MTT assay, PLC/PRF/5; assay type: cell-based; conditions: 72 hours
Protocol: (§1) 2) Against the liver cancer cell lines: The effect of the racemic mixture of 8-HHA and that of the individual enantiomers, namely S and R enantiomers, were examined on survival of PLC/PRF/5 (also referred to as “PLC-5” or “PLC5”), Hep3B and SNU449 (also referred to as “SNU”) liver cancer cell lines. The cell viability was examined in the exponential growth phase with 100 μM of 8-HHA for 72 hours using colorimetric MTT assay. In separate assays, PLC-5 cells were treated with different concentrations of S-enantiomer of 8-HHA ranging from 20-100 μM for 72 hours.

[3] = tested on: Hep3B liver cancer cell line; test: Cell survival, colorimetric MTT assay, Hep3B; assay type: cell-based; conditions: 100 μM, 72 hours
Protocol: as §1

[4] = tested on: SNU449 liver cancer cell line; test: Cell survival, colorimetric MTT assay, SNU449; assay type: cell-based; conditions: 100 μM, 72 hours
Protocol: as §1

PARP [5] = test: PARP cleavage in SNU liver cancer cells; assay type: cell-based; conditions: 100 μM
Description: (§2) PARP cleavage is considered a specific and well established marker of apoptosis. During apoptosis, FAS receptor undergoes down regulation, which is considered as an established indicator of apoptosis. Apoptosis can be induced by a pathway stimulated by FAS receptor binding to FAS ligand and is called extrinsic mechanism. Apoptosis by this pathway results in the reduction of FAS receptor.
(§3) 1) Against liver cancer cell lines: The effect of 8-HHA was examined on apoptosis in liver cancer cell lines.

PARP [6] = test: PARP cleavage in PLC-5 liver cancer cells; assay type: cell-based; conditions: PLC-5 cells, 100 μM
Description: as §2, §3

FAS receptor [7] = test: FAS receptor levels in PLC-5 cells; assay type: cell-based; conditions: 100 μM, 72 hours
Protocol: as §2
PLC-5 cell lines were treated with […] 100 μM for 72 hours.

FAS receptor [8] = test: FAS protein levels in HOP-92 cells; assay type: cell-based, human; conditions: HOP92 cells, 100 μM, 72 hours
Protocol: as §2
2) Against lung cancer cell lines: HOP-92 lung cancer cell lines were treated with 100 μM of (S)-8-HHA for 72 hours.

Bim1 = test: Pro-apoptotic Bim1 in HOP92 cells; assay type: cell-based, human; conditions: 100 μM, 72 hours
Protocol: Bim1 is a pro-apoptotic protein whose up regulation leads to apoptosis. HOP92 cell lines were treated with 100 μM of S-enantiomer of 8-HHA for 72 hours.

HeLa cells = test: HeLa cell viability by Alamar Blue assay; assay type: cell-based; conditions: 24, 48 and 72 hrs
Description: Assessment of cell viability by alamar blue reduction method is routinely used for illustrating cytotoxic potential of candidate drugs. Alamar blue detects cell viability by utilizing a blue non-fluorescent dye resazurin, which is converted to a pink fluorescent dye, resorufin by cellular metabolic intermediates. The fluorescent signal generated from the assay is proportional to the number of living cells in the sample. Confluent HeLa cells (70-80%) grown in T-75 flasks were detached using trypsin-EDTA. Following centrifugation, the cells pellet was resuspended in DMEM medium and counted using a hemocytometer. Cells were seeded into 96 well plate at a density of 10,000 cells/100 μl/well and incubated at 37° C./5% CO2 for 8 hrs. Media was removed and test compounds were added in the volume of 100 μl. […] At the end of 24, 48 & 72 hrs treatment with test compound, fluorescence was measured at 530 excitation and 590 nm emissions using a micro plate reader. Viability expressed as % control was plotted against drug concentration.
The mean value of duplicate wells was calculated. […] The percentage of cell viability of test samples was calculated as:
[formula] IC50 values were determined by nonlinear regression analysis (curve fit) of percent viability data against drug concentration using the sigmoidal dose-response (variable) equation (Graph Pad Prism 4 software).

SMILES | reduced the survival of HOP92 cell lines by [1] [%] | IC50 ([1]; Homo sapiens, HOP-92, 20-100 μM, read-out: 50% reduction in cell survival (IC50)) [µM] | reduced the survival of PLC-5 cell line by ([2]; 100 μM) [%] | IC50 ([2]; Homo sapiens, PLC-5, 20-100 μM, read-out: 50% reduction in cell survival (IC50)) [µM] | reduced the survival of Hep3B cell line by [3] [%] | effect on survival of SNU cell line [4] [%] | PARP cleavage (PARP [5]) | PARP cleavage (PARP [6]) | FAS receptor levels compared to the control (FAS receptor [7]) | FAS protein levels (FAS receptor [8]) | Bim1 increase compared to the control sample (Bim1) [fold] | HeLa cell viability, result in words (HeLa cells)
CCCCCCCC[C@@H](O)CCCCCCC(=O)O [(R)-8-HHA, 8(R)-hydroxypalmitic acid] | 13 | – | – | – | – | – | – | – | – | – | – | –
CCCCCCCC[C@H](O)CCCCCCC(=O)O [(S)-8-HHA, 8(S)-hydroxypalmitic acid] | 72 | ~90 | ~75 | ~50 | ~75 | ~75 | resulted in the PARP cleavage | resulted in the PARP cleavage | substantial reduction in FAS receptor levels | reduction of FAS protein levels | 2 | –
CC(C)(C)c1ccc(C(O)CCCN2CCC(C(O)(c3ccccc3)c3ccccc3)CC2)cc1 (stereo not shown) [Terfenadine] | – | – | – | – | – | – | – | – | – | – | – | dose dependent inhibition
